Article PMC12379159 (Journal of Natural Products, 2025)
Positions count from the first letter of the chain named.

Experiments:
hRORγ LBD = target: T1, hRORγ LBD (Homo sapiens, UniProt P51449); experiment: Thermal stability by nano differential scanning fluorimetry (nanoDSF); assay type: binding; details: RORγ-LBD with 4 equiv ligand vs without ligand; mean ± SD
T1 construct: His tag (N, cleaved yes); made in house; host or cells: Escherichia coli BL21 DE3
T1 sequence (P51449 264-518): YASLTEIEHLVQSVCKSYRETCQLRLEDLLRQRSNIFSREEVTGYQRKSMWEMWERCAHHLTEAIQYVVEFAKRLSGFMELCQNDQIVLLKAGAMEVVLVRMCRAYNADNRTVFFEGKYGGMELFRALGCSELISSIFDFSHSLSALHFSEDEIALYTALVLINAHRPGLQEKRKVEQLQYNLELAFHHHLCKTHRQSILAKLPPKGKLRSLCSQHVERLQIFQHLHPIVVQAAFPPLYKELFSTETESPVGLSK
Experimental: Soluble proteins were purified on Ni Hitrap FFcrude column (Cytiva), followed by His tag removal by thrombin (MP Biomedicals) cleavage and by size exclusion chromatography on HiLoad Superdex200 column (Cytiva) equilibrated in 20 mM Tris-HCl pH 7.5, 150 mM NaCl, 1 mM TCEP (Hampton Research). Purity and homogeneity of the hRORγ LBD were assessed by SDS-PAGE. The purified protein was concentrated to 0.5–1.0 mg/mL with an Amicon Ultra 10 kDa MWCO. The aliquots of purified LBD were incubated with 4 equiv ligands or vehicle for thermal stability experiments.
Fluorescence-based thermal experiments were performed using a Prometheus NT.48 (NanoTemper Technologies, Germany) with grade standard capillaries containing 10 μL of RORγLBD with different ligands. […] NanoTemper PR. Stability Analysis v1.0.2 was used to fit the data and determine the melting temperatures Tm.

[1] = tested on: Il17a and Il17f (Il17a/f); experiment: RT-qPCR of Il17a and Il17f in EL-4-mRORγt cells; assay type: cell-based, murine; details: 5 μM, 20–24 h, then 4.5-h PMA and ionomycin
Experimental: For RT-qPCR assays, 5 × 10^5 EL-4-mRORγt cells were seeded in 500 μL complete DMEM per well of a 24-well plate and treated with the vehicle control, the positive control, or the compounds of interest. After incubation for 20–24 h, cells were stimulated with Cell Activation Cocktail (PMA: 40.5 μM, ionomycin: 669.3 μM; 500X) for 4.5 h. Afterward, total RNA was isolated using the innuPREP RNA Mini Kit 2.0 according to the manufacturer’s instructions. According to the manufacturer’s instructions, 1 μg RNA was reverse-transcribed into cDNA using the High-Capacity cDNA Reverse Transcription Kit. RT-qPCR was performed using the Luna Universal qPCR Master Mix on a LightCycler 480 (Roche Diagnostics, Rotkreuz, Switzerland) according to the manufacturer’s instructions. […] Livak’s 2−ΔΔCt method was employed to determine the expression levels of RORγ target genes. This involved normalizing the target gene expression to the expression levels of the control gene 18s, followed by further normalization to the vehicle control.

EL-4-mRORγt cells = experiment: Resazurin conversion assay in EL-4-mRORγt cells; assay type: cell-based, murine; details: 5 μM, 20-24 h
Experimental: (§1) To check the metabolic activity of cells correlating with cell viability, cells were treated with the vehicle control (0.1% DMSO), digitonin as the positive control for cytotoxicity at 20 μg/mL (HEK293 cells) or 50 μg/mL (EL-4-mRORγt cells), or the compounds of interest at 5 μM for 18 h (HEK293 cells) or 20–24 h (EL-4-mRORγt cells). The next day, the medium was carefully removed and replaced with stripped DMEM without phenol red, containing 10 μg/mL resazurin sodium salt. Cells were incubated for 5 h before RFU values were measured at λem = 590 nm using a spectrophotometer. Cell viability was calculated as follows: Cell viability(%)=100×RFU value after compound treatment/RFU value after vehicle control treatment Cytotoxicity was defined as cell viability under 70% according to the ISO 10993–5 guidelines. Cell viability <90% is explicitly stated in the respective figure.

Gal4-hRORγ = target: T2, Gal4-hRORγ (Homo sapiens, UniProt P51449); experiment: Gal4-RORγ mammalian one-hybrid luciferase assay; assay type: cell-based; details: HEK293 cells
T2 construct: Encodes for a hRORγ-LBD:Gal4-DBD fusion protein; expressed in transfected cells; host or cells: HEK293
T2 sequence (P51449 269-508 limits assumed): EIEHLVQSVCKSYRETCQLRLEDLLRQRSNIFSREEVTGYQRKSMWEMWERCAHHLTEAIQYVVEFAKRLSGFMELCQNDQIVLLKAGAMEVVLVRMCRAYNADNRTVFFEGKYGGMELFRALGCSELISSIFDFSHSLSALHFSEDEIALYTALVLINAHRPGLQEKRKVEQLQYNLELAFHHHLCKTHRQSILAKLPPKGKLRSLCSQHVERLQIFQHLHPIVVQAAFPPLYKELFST
Experimental: (§2) For luciferase assays, 8 × 10^6 HEK293 cells were seeded on 150 mm cell culture dishes and incubated for 5 h. Afterward, cells were transfected with the calcium phosphate coprecipitation method using 5 μg of the nuclear receptor (Gal4-hRORγ or full-length human RORγ), 5 μg of a luciferase reporter (pTK-MH100 × 4-LUC for Gal4-hRORγ experiments or RORE-LUC for full-length human RORγ experiments) and 3 μg eGFP-N1 (for assessing transfection efficiency) plasmid DNA and incubated overnight. […] The medium was changed the following day, and cells were further incubated for another four to 5 h before trypsin/EDTA was added to detach them from the dishes. […] RLUs were normalized to relative fluorescence units (RFU) to account for differences in cell number and transfection efficiency and then normalized to the vehicle control. Results are expressed as fold activation relative to the vehicle control.
(§3) Concentration–response data were analyzed in GraphPad Prism version 10 by three-parameter logistic nonlinear regression, with the Hill slope constrained to a theoretical value of −1.0. An IC50 value was determined only for compounds yielding a statistically reliable fit. […] In these cases, only the maximal inhibition achieved at the highest tested concentration (I max(%) at 5 μM) is reported, calculated as follows: Imax(%)=(1−Bottom/Top)×100 (“top” = baseline activity measured at the lowest concentration, “bottom” = residual activity observed at the highest concentration, corresponding to the maximal inhibitory effect).

HEK293 cells = experiment: Resazurin conversion assay in HEK293 cells; assay type: cell-based, human; details: 5 μM, 18 h
Experimental: as §1

full-length human RORγ = target: T3, full-length human RORγ (Homo sapiens, UniProt P51449); experiment: Full-length RORγ luciferase assay (RORE-LUC reporter); assay type: cell-based; details: HEK293 cells, 5 μM
T3 construct: Encodes for the full-length human RORγ; expressed in transfected cells; host or cells: HEK293
T3 sequence (P51449 1-518): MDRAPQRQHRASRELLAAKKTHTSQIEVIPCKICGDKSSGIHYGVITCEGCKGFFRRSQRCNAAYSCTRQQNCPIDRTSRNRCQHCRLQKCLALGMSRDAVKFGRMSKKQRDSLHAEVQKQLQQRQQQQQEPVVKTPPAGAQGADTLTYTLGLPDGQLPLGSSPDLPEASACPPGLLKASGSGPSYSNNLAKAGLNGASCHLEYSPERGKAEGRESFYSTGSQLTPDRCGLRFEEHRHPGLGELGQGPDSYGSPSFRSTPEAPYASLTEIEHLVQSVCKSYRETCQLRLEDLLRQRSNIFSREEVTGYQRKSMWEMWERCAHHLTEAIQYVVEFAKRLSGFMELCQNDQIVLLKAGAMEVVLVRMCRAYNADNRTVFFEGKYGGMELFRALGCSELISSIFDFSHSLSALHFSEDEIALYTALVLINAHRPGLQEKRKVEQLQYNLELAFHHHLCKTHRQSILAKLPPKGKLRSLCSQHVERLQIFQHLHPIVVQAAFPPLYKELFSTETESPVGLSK
Experimental: as §2, §3

Gal4-RORγ H479L = target: T4, Gal4-RORγ H479L (Homo sapiens, UniProt P51449, H479L); experiment: Gal4-RORγ H479L mutant luciferase assay; details: 5 μM
T4 sequence (P51449 269-508 H479L limits assumed): T2 sequence (P51449 269-508 limits assumed) with H211L
Experimental: Gal4-hRORγ H323A and H479L mutants were generated using the QuikChange Lightning Site-Directed Mutagenesis Kit according to the manufacturer’s instructions. Briefly, 10 ng template DNA (Gal4-hRORγ) was PCR-amplified with the respective mutagenic forward and reverse primers listed in Table S3, which were designed using the QuikChange Primer Design tool (https://www.agilent.com/store/primerDesignProgram.jsp). […] Two μL of the PCR product were then transformed into XL1-Blue competent E. coli according to a protocol provided by NEB. […] After centrifuging the main culture at 5691g for 10 min, the supernatant was decanted, and plasmid preparation was performed using the PureLink HiPure Plasmid Midiprep Kit according to the manufacturer’s instructions. DNA yields and purities were checked using a NanoDrop 2000c (Thermo Fisher Scientific, Waltham, MA, USA).

C=C(C)[C@@H]1CC[C@]2(C(=O)O)CC[C@]3(C)[C@H](CC[C@@H]4[C@@]5(C)CC[C@H](O)C(C)(C)[C@@H]5CC[C@]43C)[C@@H]12 [Betulinic acid, reference compound]
ΔTm measured with nano differential scanning fluorimetry (hRORγ LBD): 9.1 ± 0.2 °C
Il17a/f expression [1]: reduction of Il17a/f expression
Cytotoxic effects, resazurin conversion assay (EL-4-mRORγt cells): no cytotoxic effects
Imax(%) at 5 μM, Gal4-RORγ luciferase assay (Gal4-hRORγ; 5 μM): 47%
IC50 (Gal4-hRORγ; 18 h treatment, up to 5 μM): 1200 nM
Cytotoxic effects, resazurin conversion assay (HEK293 cells): no cytotoxic effects
Imax(%) at 5 μM, full-length RORγ luciferase assay (full-length human RORγ): 38%
Activity on Gal4-RORγ H479L vs WT (Gal4-RORγ H479L): notable decrease in activity
